Experiments:
Format in all cases: cell-based
[1] = system: CD44 population of DU145 cells; test: Flow cytometry study, CD44/CD24 staining; conditions: DU145 cells exposed to IC25 drug conc. for 48 hrs; untreated 70.18% cells CD44
[2] = system: L929; test: In vitro colorimetric cell death assay (MTT); conditions: L929 fibroblast cancer cell line, 48 hours with compound, read-out: IC 50 Value
Protocol: (§1) For assessing cell viability in vitro colorimetric cell death assay was carried out where the cells were grown in two-dimensional surface as follows. Cancer cells with plating efficiency as mentioned herein below for respective cell lines were plated in a 96 well plate. The plate was incubated for 24 hours in a 5% CO2 atmosphere at 37 degrees Celsius, a range of concentrations from 10^−3 M to 10^−6 M of the compound Ethyl-5,6-dimethyl-4-(piperidin-1-yl)thieno[2,3-d]pyrimidine was added to the wells, the plates were incubated further for 48 hours in a 5% CO2 atmosphere, the plate was centrifuged twice at 3000 rpm for 3 minutes, the supernatant fluid was discarded, 100 uL of 0.5 mg/mL 3-(4,5-Dimethylthiazol-2-yl)-2,5-Diphenyltetrazolium Bromide (MTT) solution was added and the plate was incubated for 4 hours in a 5% CO2 atmosphere at 37 degrees Celsius. The plate was then centrifuged twice at 3000 rpm for 3 minutes, supernatant was aspirated very carefully, 200 uL Dimethyl sulfoxide (DMSO) was added to each well to solubilize MTT crystals and mixed well by shaking the plate, the plate was incubated for 10 minutes in a 5% CO2 atmosphere at 37 degrees Celsius, the plate was placed on the shaker of an ELISA plate reader and the absorbance at 570 nm was measured, the percentage of viable cells remaining was calculated by first subtracting the background absorbance then comparing to the absorbance of a non-drug-treated cell sample, and the results were plotted on a graph to determine the IC50 for the compound Ethyl-5,6-dimethyl-4-(piperidin-1-yl)thieno[2,3-d]pyrimidine which was calculated by regression analysis.

[3] = system: MDAMB231; test: In vitro colorimetric cell death assay (MTT); conditions: MDAMB231 breast cancer cell line, 48 hours with compound, read-out: IC 50 Value
Protocol: as §1

[4] = system: Hep3B; test: In vitro colorimetric cell death assay (MTT); conditions: Hep3B hepatic cancer cell line, 48 hours with compound, read-out: IC 50 Value
Protocol: as §1

[5] = system: Colo320; test: In vitro colorimetric cell death assay (MTT); conditions: Colo320 colon cancer cell line, 48 hours with compound, read-out: IC 50 Value
Protocol: as §1

[6] = system: HeLa; test: In vitro colorimetric cell death assay (MTT); conditions: HeLa cervical cancer cell line, 48 hours with compound, read-out: IC 50 Value
Protocol: as §1

[7] = system: SiHa; test: In vitro colorimetric cell death assay (MTT); conditions: SiHa cervical cancer cell line, 48 hours with compound, read-out: IC 50 Value
Protocol: as §1

[8] = system: MCF-7; test: In vitro colorimetric cell death assay (MTT); conditions: MCF-7 breast cancer cell line, 48 hours with compound, read-out: IC 50 Value
Protocol: as §1

[9] = system: LNCaP; test: In vitro colorimetric cell death assay (MTT); conditions: LNCaP prostate cancer cell line, 48 hours with compound, read-out: IC 50 Value
Protocol: as §1

[10] = system: T47D; test: In vitro colorimetric cell death assay (MTT); conditions: T47D breast cancer cell line, 48 hours with compound, read-out: IC 50 Value
Protocol: as §1

[11] = system: PC3; test: In vitro colorimetric cell death assay (MTT); conditions: PC3 prostate cancer cell line, 48 hours with compound, read-out: IC 50 Value
Protocol: as §1

[12] = system: Bu25tk; test: In vitro colorimetric cell death assay (MTT); conditions: Bu25tk cervical cancer cell line, 48 hours with compound, read-out: IC 50 Value
Protocol: as §1

[13] = system: DU145; test: In vitro colorimetric cell death assay (MTT); conditions: DU145 prostate cancer cell line, 48 hours with compound, read-out: IC 50 Value
Protocol: as §1

[14] = system: primary spheres of MDA MB231; test: 3D Primary Sphere Assay; conditions: GC 92(±7), GCD 83(±6)
Protocol: (§2) The ability of cancer stem cells to form spheres in a serum free media was determined by 3D Primary Sphere Assay, where the spheres were in a suspended form. Through this assay the potency of the compound Ethyl-5,6-dimethyl-4-(piperidin-1-yl)thieno[2,3-d]pyrimidine to kill cancer stem cells in comparison to the standard chemotherapeutic drug such as Cisplatin was evaluated as follows. The Cells were grown in three dimensions on a plastic substrate, harvested in suspension in serum-free media, then the cells in the sample were trypsinised and a single cell suspension was formed by passing through a cell strainer. The cells were diluted according to the predetermined plating efficiency for the cell line being studied by suspending the cells in stem cell culture medium. 100 uL of this suspension was added into each well of a 96 well suspension plate, and the plate was incubated at 37 degrees Celsius in 5% CO2 atmosphere for 24 hours, then 2 uL of appropriate concentrations of the drugs were added into each respective well along with 100 uL of stem cell culture medium, and the plates incubated at 37 degrees Celsius under 5% CO2 atmosphere for 72 hours. 2.5 uL of the appropriate drug concentration was added to each respective well along with 50 uL of stem cell culture medium and the plates were incubated at 37 degrees Celsius under 5% CO2 atmosphere for 72 hours. 3 uL of the appropriate concentration of the compound as mentioned below was added to each respective well along with 50 uL of stem cell culture medium, incubated at 37 degrees Celsius under 5% CO2 atmosphere for 72 hours, the spheres formed were observed under a microscope, counted and scored by size. Results of the in vitro 3D sphere forming stem cell assay were set forth in a tabular manner. […] GC refers to a growth control performed in the absence of drug or solvent (DMSO). GCD refers to a growth control performed in the absence of drug, but in the presence of DMSO.

[15] = system: primary spheres of DU145; test: 3D Primary Sphere Assay; conditions: GC 49(±5), GCD 41(±4)
Protocol: as §2

[16] = system: primary spheres of PC3; test: 3D Primary Sphere Assay; conditions: GC 120(±10), GCD 103(±9)
Protocol: as §2

[17] = system: CD44 population of PC3 cells; test: Flow cytometry study, CD44/CD24 staining; conditions: PC3 cells exposed to IC25 drug conc. for 48 hrs; untreated 85.61% cells CD44
Protocol: For Flow cytometry assay the PC3 cancer cells (0.35×106) were cultured in Dulbecco's Modified Eagle's medium (DMEM) with 10% Fetal Bovine Serum (F.B.S) in 60 mm tissue culture plates for 24 hrs in 5% CO2 at 37° C. Cells were then exposed to IC25 drug conc. of Cisplatin in duplicates. Similarly other sets of cells were treated with IC25 drug conc. of Ethyl-5,6-dimethyl-4-(piperidin-1-yl)thieno[2,3-d]pyrimidine for 48 hrs. and incubated in 5% CO2 at 37° C. for 48 hrs. Appropriate controls that is growth control (cells+DMEM medium) and solvent control (cells+control DMEM medium+DMSO) and medium control (DMEM) were also kept along with the experimental sets. After 48 hrs the cells were observed under the microscope, trypsinised, washed with Dulbecco's phosphate-buffered saline (D.P.B.S.) 50 μl of cells were taken for each set and 5 μl of each of the CD44-PE labeled and CD24-FITC labeled antibodies were added. The sets were incubated for 45 mins at 4° C. for proper binding of antibodies. After incubation the cells were washed with 200 μl of D.P.B.S by centrifugation. The supernatant was discarded and the cells were finally suspended in 300 μl of FACS buffer (4% Fetal Bovine Serum in D.P.B.S). Samples were kept at 4° C. in dark till they were acquired on FACS. Acquisition was done on BD-FACS Accuri C6.

## N.N.[Cl][Pt][Cl] [Cisplatin]
[1]
  effect on CD44 population: did not have much effect
[2]
  IC50: 29 µM
[3]
  IC50: 48.4 µM
[4]
  IC50: 37.6 µM
[5]
  IC50: 38.3 µM
[6]
  IC50: 33.9 µM
[7]
  IC50: 35.5 µM
[8]
  IC50: 29.2 µM
[9]
  IC50: 52.5 µM
[10]
  IC50: 58.9 µM
[11]
  IC50: 11.2 µM
[12]
  IC50: 59.3 µM
[13]
  IC50: 31.6 µM
[14]; MDA MB231, final conc. 1.25 μM
  total number of spheres formed: 76(±8)
[14]; MDA MB231, final conc. 12.5 μM
  total number of spheres formed: 52(±6)
[14]; MDA MB231, final conc. 125 μM
  total number of spheres formed: 39(±3)
[14]; MDA MB231
  total number of spheres formed: 25(±5)
[15]; DU145, final conc. 1.25 μM
  total number of spheres formed: 48(±5)
[15]; DU145, final conc. 12.5 μM
  total number of spheres formed: 41(±5)
[15]; DU145, final conc. 125 μM
  total number of spheres formed: 23(±4)
[15]; DU145, final conc. 1250 μM
  total number of spheres formed: 12(±3)
[16]; PC3, final conc. 1.25 μM
  total number of spheres formed: 109(±6)
[16]; PC3, final conc. 12.5 μM
  total number of spheres formed: 107(±9)
[16]; PC3, final conc. 125 μM
  total number of spheres formed: 88(±6)
[16]; PC3
  total number of spheres formed: 74(±7)
[17]
  effect on CD44 population: did not have much effect
